{
  "source": "patent US9453050B2",
  "about": "“Compositions for treating glioma” (GLIA SP Z.O.O., priority 2011, dated 2016)",
  "molecules": {"B1": {"name": "lactadherin shRNA: shRNA to rat lactadherin, oligonucleotides SEQ ID NO: 25 and 26, stably expressed in C6 glioma cells (nucleic acid)", "chain 1": "GATCCGGATGAAAGCGGAACCGGATTCAAGAGATCCGGTTCCGCTTTCATCCTGTTTTTTGGAAA", "chain 2": "AGCTTTTCCAAAAAACAGGATGAAAGCGGAACCGGATCTCTTGAATCCGGTTCCGCTTTCATCCG", "modifications": "the letters are possibly those of the target site"}},
  "key": {"[1]": {"tested_on": "rat primary microglia cultures", "test": "GCM-induced amoeboid transformation of microglia (F-actin staining)", "assay_type": "cell-based", "conditions": "pre-incubation with 500 μM peptide; FIG. 6A", "method": "Cell culture and treatment. Primary cultures of rat microglia were prepared from 1-day-old Wistar rat pups as described previously (Zawadzka and Kaminska 2003). Briefly, cells were isolated from cerebral cortices by trypsination, mechanically dissociated and plated at the density of 3×10^5 cells/cm^2 in Dulbecco's modified Eagle medium (with Glutamax and high-glucose formula 4.5 g/L, Gibco) supplemented with heat-inactivated 10% fetal bovine serum (Gibco), 100 U/mL penicillin, and 0.1 mg/mL streptomycin on poly-L-lysine coated culture 75 cm^2 flasks. Murine pEGFP-GL261 glioma cells were cultured in DMEM with 10% FBS and antibiotics (50 U/ml penicillin, 50 μg/ml streptomycin). Primary cultures of astrocytes were prepared from cerebral cortex of 2-day-old C57BL/6 newborn mice. Astrocytes were cultured in DMEM media with high glucose supplemented with 10% FBS, 100 U/ml penicillin and 100 μg/ml streptomycin. Culture medium was changed after 3 days and then twice a week. Cell cultures were maintained at 37° C. in humidified 5% CO2/95% air incubator (Heraeus, Hanau, Germany). […]\nCells were washed with a phosphate buffer saline (PBS) and fixed with 2% paraformaldehyde at indicated time periods. […] Morphological alterations were monitored by fluorescent microscopy with excitation 450-490 nm, recorded with 20× objective. […]"}, "[2]": {"tested_on": "rat primary microglia cultures", "test": "Phagocytosis of fluorescent beads by GCM-treated microglia", "assay_type": "cell-based", "conditions": "500 μM peptide; FIG. 6B", "method": "Microglia cells (1×10^5) were seeded on 24-wells plates and after 24 hours cells were transfected with 25 nM control non-targeting siRNA, and siRNA to αv or β3, or two siRNA together (ON-TARGET siRNA, Dharmacon) using 0.25 μl of DharmaFECT 3 transfection reagent in 0.5 ml culture medium. After 48 h the transfection medium was replaced by G-CM and phagocytic properties of microglia were determined as described. To estimate the silencing efficiency cells were removed from the culture plates by trypsynization and suspended in MACS buffer (PBS, 2 mM EDTA, 0.5% BSA) at final concentration 1×10^5 cells/100 μl. Cell surface expression of the integrins was analysed using primary antibodies to αv or β3 (BD Biosciences) and anti-mouse-Alexa Fluor 647 secondary antibody (Invitrogen). The fluorescent intensity of the labelled cells was analysed with FACSCalibur (Beckton Dickinson). The mean fluorescent intensity was compared with the control siRNA and expressed as the relative change to the control condition for each experimental siRNA.\nPhagocytic properties of microglia were determined by incubation of cells with 2 μm fluorescent latex beads (Sigma-Aldrich, Saint Louis, Mo., USA) for 90 min. […] The percentage of cells with none/low (<2 beads per cell), medium (≧2<10) or high (≧10 beads per cell) phagocytic activity was counted. […]"}, "[3]": {"tested_on": "rat primary microglia cultures", "test": "Scratch assay of microglia motility", "assay_type": "cell-based", "conditions": "GCM with RGD inhibitor; FIG. 6C", "method": "Microglia were platted on a 35 mm Petri dish at the density of 1.5×10^6 cells and after 48 hours the cultures were gently scratched using a pipette tip and microglia cells were cultured under various experimental conditions (control, 100 ng/mL LPS or G-CM). Motility of microglia cells was determined 3 hours after treatment. Migrating cells were visualized by phase-contrast microscopy.\nUsing the rat lactadherin amino acid sequence, a 7-aa RGD-containing peptide (RGD) was designed as a competitive inhibitor (set forth in SEQ ID NO: 18). A scrambled sequence peptide was used as a control (SCR). Pre-incubation with the chemically synthesized 500 μM RGD peptide, but not with the SCR peptide, prevented transformation of microglia into amoeboid cells following GCM induction (amoeboid cells indicated with arrows) (FIG. 6A)."}, "[4]": {"tested_on": "phosphorylated FAK, Akt and ERK in microglia cells", "test": "Immunoblotting of phosphorylated kinases in GCM-treated microglia", "assay_type": "cell-based, rat", "conditions": "pre-treatment with peptide; FIG. 6E", "method": "Whole cell lysates were prepared by scraping the cells into the buffer containing phosphatase and protease inhibitors (20 mM Tris HCl, pH6.8, 137 mM sodium chloride, 25 mM β-glycerophosphate, 2 mM sodium pyrophosphate, 2 mM EDTA, 1 mM sodium orthovanadate, 1% Triton X-100, 10% glycerol, 5 μg/ml leupeptin, 5 μg/ml aprotinin, 2 mM benzamidine, 0.5 mM DTT, 1 mM PMSF). The protein concentration was determined with the Bradford assay (Sigma-Aldrich, Saint Louis, Mo., USA). Protein extracts were separated on SDS-PAGE before electrophoretic transfer onto a nitrocellulose membrane (Amersham Biosciences, Germany) as described (Ellert-Miklaszewska et al. 2005; Sliwa et al. 2007). After blocking with 5% non-fat milk in TBS-T (Tris-buffered saline pH 7.6/0.15% Tween 20) the membranes were incubated with primary antibodies diluted in a blocking buffer overnight and then with relevant secondary antibodies for one hour. Antibodies recognizing phosphorylated and total forms of p38, ERK1/2, JNK, STAT1, STAT3, STATS, AKT, FAK and IκB as well as Cox-2 (all diluted 1:1000) and horseradish peroxidase-conjugated anti-rabbit IgG (diluted 1:2000) were purchased from Cell Signaling Technology (Beverly, Mass., USA); iNOS (diluted 1:2000) from BD Biosciences (Bedford, Mass., USA). Immunocomplexes were visualized by using ECL (Amersham). […]"}, "microglia cells [5]": {"tested_on": "microglia cells", "test": "Real-Time PCR of M2 phenotype markers and iNOS in microglia treated with U87-MG GCM plus peptides", "assay_type": "cell-based, mouse", "conditions": "500 μM peptide in GCM, 6 h", "method": "(§1) Total RNA (2 μg) isolated from microglia cultures untreated or treated for 6 h with LPS or G-CM was used as a template to generate cDNA. As endogenous control 18S (Hs99999901_s1) rRNA was applied. Gene expression quantification was performed using the Applied Biosystem TaqMan® The real time amplifications were performed in duplicates in a 20 μl reaction volume containing 2×SYBR PCR MasterMix and a set of primers designed using PRIMER EXPRESS software for the following genes: iNOS, COX-2, II1beta, TNF alpha, MMP-2, MMP-9, MMP-14, Arg1, Id1 and c-Myc. The amount of target mRNA was first normalized to the 18S RNA expression level and then to a control. Data were analysed by the Relative Quantification (^ΔΔCt) method using 7500 System SDS software (Applied Biosystems). The expression of each product was normalized to 18S rRNA and is shown as the ratio of the target gene to 18S gene expression, calculated by 2^−ΔΔCt.\nU87-MG human glioma cells were plated on 100 mm culture dishes in a total volume of 8 mL culture medium for 24 h. […]\nThe expression level of genes that were previously identified as markers of the M2 microglia/macrophage phenotype (see FIG. 4.) such as: Arg1, Id1, c-Myc and MMP-14 was determined using Real-Time PCR. Likewise, the expression level of iNOS was determined to evaluate induction of an immune response. […]"}, "microglia cells [6]": {"tested_on": "microglia cells", "test": "qPCR of GCM-induced genes in microglia exposed to GCM of shRNA-expressing C6 glioma cells", "assay_type": "cell-based, rat", "conditions": "FIG. 7B", "method": "as §1\nTo investigate the role of identified proteins in GCM-induced activation of microglia cells, stable C6 glioma cell lines expressing shRNAs specific to osteopontin (shSPP1), or a control, negative shRNA (shNeg) were generated. Silencing efficiency was approximately 98.5% (FIGS. 7A and C). Silencing of […] inhibited GCM-induced expression c-Myc and smad7 in microglia cells (FIG. 7B). […]"}},
  "data": [
    {"molecule": "DQIGFRT [SCR peptide, reference compound]", "values": [
      {"measurement": "transformation of microglia into amoeboid cells following GCM induction", "setting": "[1]", "result": "not"}
    ]},
    {"molecule": "TQRGDIF [RGD peptide]", "values": [
      {"measurement": "transformation of microglia into amoeboid cells following GCM induction", "setting": "[1]", "result": "prevented"},
      {"measurement": "GCM-induced phagocytosis", "setting": "[2]", "result": "completely blocked"},
      {"measurement": "microglia migration in a scratch assay", "setting": "[3]", "result": "completely blocked"},
      {"measurement": "activation of phosphorylated FAK, Akt and ERK kinases by GCM", "setting": "[4]", "result": "abolished"}
    ]},
    {"molecule": "DGRGDSV (SYNTHTIC PEPTIDE) [OPN inhibiting peptide]", "values": [
      {"measurement": "Id1 expression level (M2 marker)", "setting": "microglia cells [5]; FIG. 17B-C", "result": "down-regulated"},
      {"measurement": "Arg1 expression level (M2 marker)", "setting": "microglia cells [5]; vs control peptide, FIG. 17A", "result": "down-regulated"}
    ]},
    {"molecule": "B1", "values": [
      {"measurement": "GCM-induced expression c-Myc and smad7 in microglia cells", "setting": "microglia cells [6]", "result": "inhibited"}
    ]}
  ]
}
